Source: patent EP0304063B1, “Quinoline type mevalonolactones” (NISSAN CHEMICAL INDUSTRIES LTD., priority 1987, dated 1989)

System: not listed separately
Assay: Test D: Acute toxicity
Conditions: mouse, in vivo, po; orally administered 1000 mg/kg, 0.5% CMC suspension, ICR male mice, after seven days
Protocol: A 0.5% CMC suspension of a test compound was orally administered to ICR male mice (group of three mice). The acute toxicity was determined based on the mortality after seven days. With compound I-57, I-58, I-59, I-511, I-512, I-513, I-514, I-515, I-517 and I-523 of the present invention, the mortality was 0% even when they were orally administered in an amount of 1000 mg/kg.

Question: With Cc1cc(C)cc(-c2c(/C=C/C(O)CC(O)CC(=O)O)c(C(C)C)nc3ccccc23)c1 (stereo not drawn) [Compound I-515] as the compound, how does the mortality at 168 h read?
Answer: The mortality at 168 h was 0%.

Question: Which mortality at 168 h does the source give for CC(C)c1nc2ccccc2c(-c2ccccc2F)c1/C=C/C(O)CC(O)CC(=O)O (stereo not drawn) [Compound I-57] here?
Answer: Its mortality at 168 h is 0%.

Question: Which mortality at 168 h does the source give for CCc1nc2ccccc2c(-c2ccc(F)cc2)c1/C=C/C(O)CC(O)CC(=O)O (stereo not drawn) [Compound I-517] here?
Answer: The mortality at 168 h was 0%.

Question: Which mortality at 168 h does the source give for CC(C)c1nc2ccc(Cl)cc2c(-c2ccccc2Cl)c1/C=C/C(O)CC(O)CC(=O)O (stereo not drawn) [Compound I-512] here?
Answer: Its mortality at 168 h is 0%.

Question: For Cc1ccc(-c2c(/C=C/C(O)CC(O)CC(=O)O)c(C(C)C)nc3ccccc23)cc1 (stereo not drawn) [Compound I-511], which mortality at 168 h is on record?
Answer: Its mortality at 168 h is 0%.

Question: Which mortality at 168 h does the source give for Cc1cc(-c2c(/C=C/C(O)CC(O)CC(=O)O)c(C(C)C)nc3ccccc23)ccc1F (stereo not drawn) [Compound I-514] here?
Answer: The mortality at 168 h was 0%.

Question: With Cc1ccc2c(-c3ccccc3)c(/C=C/C(O)CC(O)CC(=O)O)c(C(C)C)nc2c1 (stereo not drawn) [Compound I-58] as the compound, how does the mortality at 168 h read?
Answer: Its mortality at 168 h is 0%.

Question: For O=C(O)CC(O)CC(O)/C=C/c1c(-c2ccccc2)nc2ccc(Cl)cc2c1-c1ccccc1 (stereo not drawn) [Compound I-523], which mortality at 168 h is on record?
Answer: The mortality at 168 h was 0%.

Question: For CC(C)c1nc2ccccc2c(-c2ccc(Cl)cc2)c1/C=C/C(O)CC(O)CC(=O)O (stereo not drawn) [Compound I-59], which mortality at 168 h is on record?
Answer: The mortality at 168 h was 0%.

Question: With CC(C)c1nc2ccccc2c(-c2ccc(C(F)(F)F)cc2)c1/C=C/C(O)CC(O)CC(=O)O (stereo not drawn) [Compound I-513] as the compound, how does the mortality at 168 h read?
Answer: Its mortality at 168 h is 0%.

System: cholesterol biosynthesis in vivo
Assay: Test C: Inhibition of cholesterol biosynthesis in vivo
Design: species or system Male Sprague-Dawley rats
Conditions: oral administration of 0.05 mg/kg, relative to the control group, rats

Question: Which “percent decrease of counts” value does the source give for O=C(O)CC(O)CC(O)/C=C/c1c(C2CC2)nc2ccccc2c1-c1ccc(F)cc1 (stereo not drawn) [Compound I-520] here?
Answer: Its value is 55%.

Same assay, conditions: oral administration of 10 mg/kg, relative to the control group, rats

Question: Which “percent decrease of counts” value does the source give for CC[C@H](C)C(=O)O[C@H]1C[C@H](O)C=C2C=C[C@H](C)[C@H](CC[C@@H](O)C[C@@H](O)CC(=O)O)[C@H]21 [CS-514, reference compound] here?
Answer: The value was 55%.
